# Reference: the NIST ThermoML archive (doi:10.1021/je3013028)
# ± gives the expanded uncertainty stated by the source.
# Key:
# [1] = Liquid, Ebulliometric method (Recirculating still)
# [2] = refractive index (Na D-line) (dimensionless); details: 298.15 K; 101.33 kPa; Liquid; Standard Abbe refractometry
smiles,measurement,setting,value
c1ccsc1 [thiophene],vapor or sublimation pressure,[1]; 308.14 K,16.9 ± 0.8 kPa
same,vapor or sublimation pressure,[1]; 335.63 K,49.4 ± 0.8 kPa
same,refractive index,[2],1.52869 ± 0.00031
COC [dimethyl ether],vapor or sublimation pressure,[1]; 308.14 K,786.6 ± 3.5 kPa
same,vapor or sublimation pressure,[1]; 335.63 K,1540 ± 6.2 kPa
same,vapor or sublimation pressure,[1]; 336.63 K,1572.2 ± 7.7 kPa
same,vapor or sublimation pressure,[1]; 336.7 K,1572.2 ± 7.7 kPa
CCSCC [3-thiapentane],vapor or sublimation pressure,[1]; 336.63 K,39.7 ± 0.8 kPa
same,refractive index,[2],1.43998 ± 0.00032
C=CCCCC [hex-1-ene],vapor or sublimation pressure,[1]; 328.15 K,77 ± 0.5 kPa
same,vapor or sublimation pressure,[1]; 335.74 K,98.7 ± 0.6 kPa
same,vapor or sublimation pressure,[1]; 336.09 K,99.8 ± 0.6 kPa
same,refractive index,[2],1.3851 ± 0.0003
CC(C)(C)S [2-methyl-2-propanethiol],vapor or sublimation pressure,[1]; 336.69 K,98.5 ± 0.9 kPa
same,refractive index,[2],1.42 ± 0.00031
CCCS [1-propanethiol],refractive index,[2],1.4353 ± 0.0003
